Measured values published in patent US4439426A, “Semisynthetic macrolidic antibiotics, intermediate compounds for their preparation and related pharmaceutical compositions containing them” (priority 1981, dated 1984).
Converted amounts (≈) assume the structure as drawn.

Key:
[1] = Stability in acidic environment at 25° C. (half-life of initial microbiological activity); assay type: physicochemical; conditions: aqueous solution
Method: Stability in acidic environnment at 25° C. of the novel
Note: t 1/2 represents the time for reducing to one half the initial powe
of the antibiotic determined by microbiological method through diffusion
on a plate using the test stock Microccocus luteus (Sarcina lutea) ATCC

[2] = test system: Clostridium perfrigens ATCC 3624 LRP 206; assay: microbe, parasite or virus in culture; assay type: cell-based; conditions: ATCC3624, solid medium, anaerobic, read-out: Minimum inhibiting concentration
Source text: (§1) the bacteriostatic power, expressed as the minimum inhibiting concentration (MIC) against both aerobic and anaerobic, Gram positive and Gram negative, bacterial stocks: the related results are reported in the tables 2 and 3.

Salmonella typhy LRP 8 = assay: microbe, parasite or virus in culture; assay type: cell-based; conditions: LRP8, solid medium, read-out: Minimum inhibiting concentration
Source text: as §1

[3] = test system: Streptococcus pyogenes ATCC 8668 LRP 34; assay: Minimum bactericidal concentration (MBC); assay type: cell-based
Source text: (§2) the bacterial power, expressed as the minimum bactericidal power (MBC) against some Gram positive aerobic stocks (table 5).

[4] = test system: Streptococcus faecalis subs. zymogenes LRP 61; assay: Minimum bactericidal concentration (MBC); assay type: cell-based
Source text: as §2

[5] = test system: Staphylococcus aureus ATCC 6538 P LRP 39; assay: Minimum bactericidal concentration (MBC); assay type: cell-based
Source text: as §2

[6] = test system: Corynebacterium diphteriae LRP 24; assay: Minimum bactericidal concentration (MBC); assay type: cell-based
Source text: as §2

[7] = test system: Streptococcus pneumoniae ATCC 6303 LRP 35; assay: Minimum bactericidal concentration (MBC); assay type: cell-based
Source text: as §2

Shigella sonnei LRP 5 = assay: Bacteriostatic power in solid medium (MIC); assay type: cell-based; conditions: LRP5, read-out: Minimum inhibiting concentration
Source text: as §1

Escherichia coli LRP 50 = assay: Bacteriostatic power in solid medium (MIC); assay type: cell-based; conditions: Escherichia coli, LRP50, read-out: Minimum inhibiting concentration
Source text: as §1

[8] = test system: Staphylococcus aureus ATCC 14154 LRP 78; assay: Bacteriostatic power in solid medium (MIC); assay type: cell-based; conditions: Staphylococcus aureus, ATCC14154, read-out: Minimum inhibiting concentration
Source text: as §1

[9] = test system: Streptococcus pyogenes ATCC 8668 LRP 197; assay: Bacteriostatic power in solid medium (MIC); assay type: cell-based; conditions: Streptococcus pyogenes, ATCC8668, read-out: Minimum inhibiting concentration
Source text: as §1

[10] = test system: Proteus vulgaris ATCC 6380 LRP 13; assay: Bacteriostatic power in solid medium (MIC); assay type: cell-based; conditions: Proteus vulgaris, ATCC6380, read-out: Minimum inhibiting concentration
Source text: as §1

[11] = test system: Micrococcus luteus ATCC 15957 LRP 193; assay: Bacteriostatic power in solid medium (MIC); assay type: cell-based; conditions: Micrococcus luteus, ATCC15957, read-out: Minimum inhibiting concentration
Source text: as §1

[12] = test system: Streptococcus pneumoniae ATCC 6303 LRP 53; assay: Bacteriostatic power in solid medium (MIC); assay type: cell-based; conditions: Streptococcus pneumoniae, ATCC6303, read-out: Minimum inhibiting concentration
Source text: as §1

[13] = test system: Micrococcus luteus ATCC 9341 LRP 6; assay: Bacteriostatic power in solid medium (MIC); assay type: cell-based; conditions: Micrococcus luteus, ATCC9341, read-out: Minimum inhibiting concentration
Source text: as §1

[14] = test system: Staphylococcus aureus ATCC 6538P LRP 14; assay: Bacteriostatic power in solid medium (MIC); assay type: cell-based; conditions: Staphylococcus aureus, ATCC6538P, read-out: Minimum inhibiting concentration
Source text: as §1

[15] = test system: Klelsiella pneumoniae LRP 54; assay: Bacteriostatic power in solid medium (MIC); assay type: cell-based; conditions: read-out: Minimum inhibiting concentration
Source text: as §1

[16] = test system: Pseudomonas aeruginosa LRP 9; assay: Bacteriostatic power in solid medium (MIC); assay type: cell-based; conditions: Pseudomonas aeruginosa, LRP9, read-out: Minimum inhibiting concentration
Source text: as §1

[17] = test system: Bacteroides fragilis ATCC 23745 LRP 205; assay: Bacteriostatic power in solid medium (MIC); assay type: cell-based; conditions: Bacteroides fragilis, ATCC23745, read-out: Minimum inhibiting concentration
Source text: as §1

[18] = test system: Streptococcus pneumoniae ATCC 6303 LRP 52; assay: Bacteriostatic power in solid medium (MIC); assay type: cell-based; conditions: Streptococcus pneumoniae, ATCC6303, read-out: Minimum inhibiting concentration
Source text: as §1

[19] = test system: Haemophilus influenzae ATCC 19418 LRP 213; assay: Bacteriostatic power in solid medium (MIC); assay type: cell-based; conditions: Haemophilus influenzae, ATCC19418, read-out: Minimum inhibiting concentration
Source text: as §1

[20] = test system: Streptococcus pyogenes ATCC 8668 LRP 34; assay: Bacteriostatic power in solid medium (MIC); assay type: cell-based; conditions: Streptococcus pyogenes, ATCC8668, read-out: Minimum inhibiting concentration
Source text: as §1

[21] = test system: Streptococcus faecalis LRP 7; assay: Bacteriostatic power in solid medium (MIC); assay type: cell-based; conditions: Enterococcus faecalis, LRP7, read-out: Minimum inhibiting concentration
Source text: as §1

[22] = test system: Fusobacteriumnecrophroum ATCC 27852 LRP 210; assay: Bacteriostatic power in solid medium (MIC); assay type: cell-based; conditions: read-out: Minimum inhibiting concentration
Source text: as §1

[23] = test system: Acholeplasma laidlawii ATCC 23206 LRP 204; assay: Bacteriostatic power in solid medium (MIC); assay type: cell-based; conditions: Acholeplasma laidlawii, ATCC23206, read-out: Minimum inhibiting concentration
Source text: as §1

[24] = test system: Neisseria gonorrhoeae ATCC 19424 LRP 214; assay: Bacteriostatic power in solid medium (MIC); assay type: cell-based; conditions: Neisseria gonorrhoeae, ATCC19424, read-out: Minimum inhibiting concentration
Source text: as §1

[25] = test system: Corynebacterium diphteriae LRP 24; assay: Bacteriostatic power in solid medium (MIC); assay type: cell-based; conditions: Corynebacterium, LRP24, read-out: Minimum inhibiting concentration
Source text: as §1

[26] = test system: Mycoplasma hominis I ATCC 14027 LRP 211; assay: Bacteriostatic power in solid medium (MIC); assay type: cell-based; conditions: Metamycoplasma hominis, ATCC14027, read-out: Minimum inhibiting concentration
Source text: as §1

[27] = test system: Streptococcus faecalis subsp. zymogenes ATCC 12958 LRP 61; assay: Bacteriostatic power in solid medium (MIC); assay type: cell-based; conditions: Enterococcus faecalis, ATCC12958, read-out: Minimum inhibiting concentration
Source text: as §1

[28] = test system: Staphylococcus aureus ATCC 6538P LRP 39; assay: Bacteriostatic power in solid medium (MIC); assay type: cell-based; conditions: Staphylococcus aureus, ATCC6538P, read-out: Minimum inhibiting concentration
Source text: as §1

Bacillus subtilis LRP 25 = assay: Bacteriostatic power in solid medium (MIC); assay type: cell-based; conditions: Bacillus subtilis, LRP25, read-out: Minimum inhibiting concentration
Source text: as §1

[29] = test system: Streptococcus pneumoniae ATCC 6303 LRP 35; assay: Bacteriostatic power in solid medium (MIC); assay type: cell-based; conditions: Streptococcus pneumoniae, ATCC6303, read-out: Minimum inhibiting concentration
Source text: as §1

[30] = test system: Streptococcus faecalis subs. zymogenes ATCC 12958 LRP 61; assay: Bacteriostatic power in liquid medium (MIC); assay type: cell-based; conditions: Enterococcus faecalis, ATCC12958, read-out: Minimum inhibiting concentration
Source text: as §1

[31] = test system: Streptococcus pyogenes ATCC 8668 LRP 34; assay: Bacteriostatic power in liquid medium (MIC); assay type: cell-based; conditions: Streptococcus pyogenes, ATCC8668, read-out: Minimum inhibiting concentration
Source text: as §1

[32] = test system: Staphylococcus aureus ATCC 6538 P LRP 39; assay: Bacteriostatic power in liquid medium (MIC); assay type: cell-based; conditions: Staphylococcus aureus, ATCC6538, read-out: Minimum inhibiting concentration
Source text: as §1

[33] = test system: Corynebacterium diphteriae LRP 24; assay: Bacteriostatic power in liquid medium (MIC); assay type: cell-based; conditions: Corynebacterium, LRP24, read-out: Minimum inhibiting concentration
Source text: as §1

[34] = test system: Streptococcus pneumoniae ATCC 6303 LRP 35; assay: Bacteriostatic power in liquid medium (MIC); assay type: cell-based; conditions: Streptococcus pneumoniae, ATCC6303, read-out: Minimum inhibiting concentration
Source text: as §1

With `CC[C@H]1OC(=O)[C@H](C)[C@@H](O[C@H]2C[C@H](OC)[C@@H](O)[C@H](C)O2)[C@H](C)[C@@H](O[C@@H]2O[C@H](C)C[C@H](N(C)C)[C@H]2O)[C@](C)(O)C[C@](C)(F)C(=O)[C@H](C)[C@@H](O)[C@H]1C` [P-80204, 3-O-oleandrosyl-5-O-desosaminyl-(8S)-8-fluoroerythronolide B] the half-life ([1]; pH 2) was 25 h, the half-life ([1]; pH 3) was 100 h and the MIC [2] was 1.56 µg/mL (≈ 2.16 µM). For the same molecule, the MIC (Salmonella typhy LRP 8) was 25 µg/mL (≈ 34.6 µM), the MBC/MIC [3] was 8 and the MBC ([3]; Streptococcus pyogenes, ATCC8668, read-out: Minimum bactericidal concentration (MBC)) was 0.39 µg/mL (≈ 0.54 µM). It also gave an MBC/MIC [4] of 16, an MBC ([4]; Enterococcus faecalis, read-out: Minimum bactericidal concentration (MBC)) of 6.25 µg/mL (≈ 8.66 µM) and an MBC/MIC [5] of 16. The MBC ([5]; Staphylococcus aureus, ATCC6538, read-out: Minimum bactericidal concentration (MBC)) was 3.12 µg/mL (≈ 4.32 µM), the MBC/MIC [6] was 16 and the MBC ([6]; Corynebacterium, LRP24, read-out: Minimum bactericidal concentration (MBC)) was 0.39 µg/mL (≈ 0.54 µM). The MBC/MIC [7] was 2, the MBC ([7]; Streptococcus pneumoniae, ATCC6303, read-out: Minimum bactericidal concentration (MBC)) was 0.049 µg/mL (≈ 0.0679 µM) and the MIC (Shigella sonnei LRP 5) was 25 µg/mL (≈ 34.6 µM). The MIC (Escherichia coli LRP 50) was 25 µg/mL (≈ 34.6 µM), the MIC [8] was 25 µg/mL (≈ 34.6 µM) and the MIC [9] was 0.049 µg/mL (≈ 0.0679 µM). It also gave an MIC [10] of 25 µg/mL (≈ 34.6 µM), an MIC [11] of 25 µg/mL (≈ 34.6 µM) and an MIC [12] of 0.049 µg/mL (≈ 0.0679 µM). It also gave an MIC [13] of 0.049 µg/mL (≈ 0.0679 µM), an MIC [14] of 0.39 µg/mL (≈ 0.54 µM) and an MIC [15] of 25 µg/mL (≈ 34.6 µM). It also gave an MIC [16] of 25 µg/mL (≈ 34.6 µM), an MIC [17] of 3.12 µg/mL (≈ 4.32 µM) and an MIC [18] of 0.049 µg/mL (≈ 0.0679 µM). It also gave an MIC [19] of 6.25 µg/mL (≈ 8.66 µM), an MIC [20] of 0.049 µg/mL (≈ 0.0679 µM) and an MIC [21] of 0.39 µg/mL (≈ 0.54 µM). The MIC [22] was 12.5 µg/mL (≈ 17.3 µM), the MIC [23] was 3.12 µg/mL (≈ 4.32 µM) and the MIC [24] was 0.39 µg/mL (≈ 0.54 µM). The MIC [25] was 0.049 µg/mL (≈ 0.0679 µM), the MIC [26] was 25 µg/mL (≈ 34.6 µM) and the MIC [27] was 0.39 µg/mL (≈ 0.54 µM). It also gave an MIC [28] of 0.39 µg/mL (≈ 0.54 µM), an MIC (Bacillus subtilis LRP 25) of 0.195 µg/mL (≈ 0.27 µM) and an MIC [29] of 0.049 µg/mL (≈ 0.0679 µM). It also gave an MIC [30] of 0.39 µg/mL (≈ 0.54 µM), an MIC [31] of 0.049 µg/mL (≈ 0.0679 µM) and an MIC [32] of 0.195 µg/mL (≈ 0.27 µM). For the same molecule, the MIC [33] was 0.024 µg/mL (≈ 0.0332 µM) and the MIC [34] was 0.024 µg/mL (≈ 0.0332 µM).
